Results: ChEMBL document CHEMBL6127031, “Novel multitarget directed ligands inspired by riluzole: A serendipitous synthesis of substituted benzo[b][1,4]thiazepines potentially useful as neuroprotective agents” (Bioorg Med Chem, 2024)
Activity calls are given as the source filed them. The calls are words filed in the database; no cut-off is given here.

Experiments:
[1] = test system: Cerebral cortex; experiment: Neuroprotective activity against OGD/R induced injury in male Wistar rat brain cortical slices assessed as reversal of LDH release at 0.001 to 10 uM by spectrophometric analysis; format: functional, tissue-based; conditions: dose 0.001-10 µM
[2] = test system: Cerebral cortex; experiment: Neuroprotective activity against OGD/R induced injury in male Wistar rat brain cortical slices assessed as reversal of tissue water gain at 0.001 to 10 uM; format: functional, tissue-based; conditions: dose 0.001-10 µM
[3] = test system: SH-SY5Y; experiment: Inhibition of K channel in human SH-SY5Y cells assessed as reduction in steady-state component of KDR current at 50 uM under +60mV by whole-cell patch clamp assay relative to control; format: cell-based
[4] = test system: Cerebral cortex; experiment: Neuroprotective activity against OGD/R induced injury in male Wistar rat brain cortical slices assessed as reversal of LDH release at 0.01 to 10 uM by spectrophometric analysis; format: functional, tissue-based; conditions: dose 0.01-10 µM
[5] = Permeability of the compound assessed as membrane retention rate by PAMPA method; format: ADME
[6] = test system: Cerebral cortex; experiment: Neuroprotective activity against OGD/R induced injury in male Wistar rat brain cortical slices assessed as reversal of tissue water gain at 0.01 to 10 uM; format: functional, tissue-based; conditions: dose 0.01-10 µM
[7] = test system: SH-SY5Y; experiment: Inhibition of K channel in human SH-SY5Y cells assessed as change in channel activation at 50 uM under +25 to +55 mV by whole-cell patch clamp assay; format: cell-based
[8] = Apparent permeability of the compound in PBS buffer at pH 7.4 incubated for 4 hrs under shaking condition by LC-UV-MS analysis; format: ADME; conditions: not told
[9] = test system: SH-SY5Y; experiment: Inhibition of Na channel in human SH-SY5Y cells assessed as maximum conductance at 50 uM by whole-cell patch clamp assay relative to control; format: cell-based
[10] = test system: SH-SY5Y; experiment: Inhibition of K channel in human SH-SY5Y cells assessed as decrease in maximum conductance at 50 uM under +25 to +55 mV by whole-cell patch clamp assay relative to control; format: cell-based
[11] = test system: SH-SY5Y; experiment: Inhibition of Na channel in human SH-SY5Y cells assessed as reduction in current amplitude at 50 uM by whole-cell patch clamp assay relative to control; format: cell-based
[12] = test system: SH-SY5Y; experiment: Inhibition of Na channel in human SH-SY5Y cells assessed as change in channel activation at 50 uM under -30 to + 20 mV by whole-cell patch clamp assay; format: cell-based
[13] = test system: SH-SY5Y; experiment: Inhibition of Na channel in human SH-SY5Y cells assessed as normalized peak current density at 50 uM under -25 mV by whole-cell patch clamp assay; format: cell-based
[14] = test system: Cerebral cortex; experiment: Neuroprotective activity against OGD/R induced injury in male Wistar rat brain cortical slices assessed as effect on LDH release at 1 uM by spectrophometric analysis; format: functional, tissue-based
[15] = test system: Cerebral cortex; experiment: Neuroprotective activity against OGD/R induced injury in male Wistar rat brain cortical slices assessed as effect on tissue edema at 10 uM; format: functional, tissue-based
[16] = test system: Cerebral cortex; experiment: Neuroprotective activity against OGD/R induced injury in male Wistar rat brain cortical slices assessed as effect on LDH release at 10 uM by spectrophometric analysis; format: functional, tissue-based
[17] = test system: Cerebral cortex; experiment: Neuroprotective activity against OGD/R induced injury in male Wistar rat brain cortical slices assessed as reversal of LDH release at 0.01 to 1 uM by spectrophometric analysis; format: functional, tissue-based; conditions: dose 0.01-1 µM
[18] = test system: Cerebral cortex; experiment: Neuroprotective activity against OGD/R induced injury in male Wistar rat brain cortical slices assessed as reversal of tissue water gain at 0.01 to 1 uM; format: functional, tissue-based; conditions: dose 0.01-1 µM

N/C(=N\c1nc2ccc([N+](=O)[O-])cc2s1)N1CCCSc2cc([N+](=O)[O-])ccc21
Activity [1]: inactive | Activity [2]: inactive

N/C(=N\c1nc2ccccc2s1)N1CCCSc2ccccc21
inhibition [3]: 28.4% | Activity [4]: Active | R% [5]: 28.24% | Activity [6]: Active | inhibition [7]: Active | Papp at 4 h [8]: 17 ×10⁻⁶ cm/s | inhibition [9]: 28.4% | inhibition [10]: 35% | inhibition [11]: 28.4% | inhibition [12]: Active | inhibition [13]: Active

CC(C)NCC(O)COc1cccc2ccccc12 (stereo not given) [PROPRANOLOL]
R% [5]: 10.73% | Papp at 4 h [8]: 17.2 ×10⁻⁶ cm/s

N/C(=N\c1nc2ccc(OC(F)(F)F)cc2s1)N1CCCSc2cc(OC(F)(F)F)ccc21
Activity [14]: inactive | Activity [15]: inactive | Activity [16]: inactive | Activity [17]: inactive | Activity [18]: Active
